# Reference: PubChem BioAssay AID330 (DTP/NCI, 2004)
# Where “and” joins values, the source holds several entries; their conditions need not be identical. Equal values may be shown once. Inconclusive results and toxic doses are left out.
# System: P388 leukemia ip, CD2F1 mice, survival T/C
# Test: NCI In Vivo Anticancer Drug Screen. Data for tumor model P388 Leukemia (intraperitoneal) in CD2F1 (CDF1) mice
# Details: endpoint: median survival time, higher = longer survival
# How it was run: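 Mice carrying the transplanted tumor received test compound or vehicle. Survival was recorded in each group, and the value is the treated-group measurement divided by that of the vehicle-treated control group.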
# [1] = dose: 50.0 mg/kg/injection, schedule: Q01DX009 (ip), vehicle: saline
# [2] = dose: 100.0 mg/kg/injection, schedule: Q01DX009 (ip), vehicle: saline
# [3] = dose: 200.0 mg/kg/injection, schedule: Q01DX009 (ip), vehicle: saline
# [4] = dose: 12.5 mg/kg/injection, schedule: Q01DX009 (ip), vehicle: saline
# [5] = dose: 100.0 mg/kg/injection, schedule: Q01DX009 (ip), vehicle: Klucel (hydroxypropylcellulose) (HPC)
# [6] = dose: 200.0 mg/kg/injection, schedule: Q01DX009 (ip), vehicle: Klucel (hydroxypropylcellulose) (HPC)
# [7] = dose: 50.0 mg/kg/injection, schedule: Q01DX005 (ip), vehicle: saline with Tween-80
# [8] = dose: 100.0 mg/kg/injection, schedule: Q01DX005 (ip), vehicle: saline with Tween-80
# [9] = dose: 200.0 mg/kg/injection, schedule: Q01DX005 (ip), vehicle: saline with Tween-80
# [10] = dose: 60.0 mg/kg/injection, schedule: Q01DX005 (ip), vehicle: Klucel (hydroxypropylcellulose) (HPC)
# [11] = dose: 120.0 mg/kg/injection, schedule: Q01DX005 (ip), vehicle: Klucel (hydroxypropylcellulose) (HPC)
compound,measurement,setting,value
CC(=O)OCC12CCC(C)=CC1OC1C(OS(C)(=O)=O)C(=O)C2(C)C12CO2 (stereo not given),T/C,"dose: 0.5 mg/kg/injection, schedule: Q01DX009 (ip), vehicle: saline",100 % of control
same,T/C,"dose: 1.0 mg/kg/injection, schedule: Q01DX009 (ip), vehicle: saline",103 % of control
same,T/C,"dose: 2.0 mg/kg/injection, schedule: Q01DX009 (ip), vehicle: saline",109 % of control
same,T/C,"dose: 4.0 mg/kg/injection, schedule: Q01DX009 (ip), vehicle: saline",110 % of control
C(=N\Nc1nc2ccccc2s1)/c1cccs1,T/C,[1],100 % of control
same,T/C,[2],87 % of control
same,T/C,[3],106 % of control
Nc1cccnc1N,T/C,"dose: 2.5 mg/kg/injection, schedule: Q01DX009 (ip), vehicle: saline",98 % of control
same,T/C,"dose: 3.12 mg/kg/injection, schedule: Q01DX009 (ip), vehicle: saline",106 % of control
same,T/C,"dose: 5.0 mg/kg/injection, schedule: Q01DX009 (ip), vehicle: saline",98 % of control
same,T/C,"dose: 6.25 mg/kg/injection, schedule: Q01DX009 (ip), vehicle: saline",106 % of control
same,T/C,"dose: 10.0 mg/kg/injection, schedule: Q01DX009 (ip), vehicle: saline",105 % of control
same,T/C,[4],92 % of control and 93 % of control
same,T/C,"dose: 20.0 mg/kg/injection, schedule: Q01DX009 (ip), vehicle: saline",101 % of control
S=C1SCN(C2CCCCC2)CN1C1CCCCC1,T/C,[5],100 % of control
same,T/C,[6],105 % of control
same,T/C,"dose: 400.0 mg/kg/injection, schedule: Q01DX009 (ip), vehicle: Klucel (hydroxypropylcellulose) (HPC)",107 % of control
CNC(=N)c1ccc(NC(=N)c2ccc(NC(=N)c3ccc(NC(=O)Nc4ccc(C(=N)Nc5ccc(C(=N)Nc6ccc(C(=N)NC)cc6)cc5)cc4)cc3)cc2)cc1,T/C,"dose: 1.78 mg/kg/injection, schedule: Q04DX003 (ip), vehicle: saline with Tween-80",108 % of control
same,T/C,"dose: 2.66 mg/kg/injection, schedule: Q04DX003 (ip), vehicle: saline with Tween-80",108 % of control
same,T/C,"dose: 4.0 mg/kg/injection, schedule: Q04DX003 (ip), vehicle: saline with Tween-80",116 % of control
C/C(=N\NC(N)=Nc1ccc(Cl)cc1)c1ccc(Cl)c(Cl)c1,T/C,"dose: 25.0 mg/kg/injection, schedule: Q04DX002 (ip), vehicle: saline with Tween-80",99 % of control
same,T/C,"dose: 50.0 mg/kg/injection, schedule: Q04DX002 (ip), vehicle: saline with Tween-80",102 % of control
same,T/C,"dose: 100.0 mg/kg/injection, schedule: Q04DX002 (ip), vehicle: saline with Tween-80",102 % of control
O=C1C(=O)N(c2ccccc2)N=C1N=Nc1ccccc1,T/C,[7],110 % of control and 115 % of control
same,T/C,[8],108 % of control and 114 % of control
same,T/C,[9],117 % of control and 120 % of control
same,T/C,"dose: 400.0 mg/kg/injection, schedule: Q01DX005 (ip), vehicle: saline with Tween-80",109 % of control
CC(=O)N(C)c1ccc(NC(=O)Nc2cc(C)ccc2C)cc1,T/C,[1],91 % of control
same,T/C,[2],88 % of control
CNC(=O)NNc1ccccc1,T/C,"dose: 25.0 mg/kg/injection, schedule: Q04DX003 (ip), vehicle: Klucel (hydroxypropylcellulose) (HPC)",100 % of control
same,T/C,"dose: 50.0 mg/kg/injection, schedule: Q04DX003 (ip), vehicle: Klucel (hydroxypropylcellulose) (HPC)",102 % of control
same,T/C,"dose: 100.0 mg/kg/injection, schedule: Q04DX003 (ip), vehicle: Klucel (hydroxypropylcellulose) (HPC)",97 % of control
same,T/C,"dose: 200.0 mg/kg/injection, schedule: Q04DX003 (ip), vehicle: Klucel (hydroxypropylcellulose) (HPC)",102 % of control
same,T/C,"dose: 400.0 mg/kg/injection, schedule: Q04DX003 (ip), vehicle: Klucel (hydroxypropylcellulose) (HPC)",103 % of control
CC1C(O)[C@@]2(OC[C@@]34C(=O)CC5(O)[C@H](CCC6Cc7nc8c(nc7C[C@]65C)CC5CC[C@@H]6C7=C[C@H]9O[C@@]%10(O[C@@](C)(CO)C[C@@H]%10O)C(C)[C@@]9(O)[C@]7(C)[C@@H](O)CC6[C@]5(C)C8)C3=CC[C@H]4C2C)OC1(C)C (stereo not given in full),T/C,"dose: 10.0 micrograms/kg/injection, schedule: Q01DX005 (ip), vehicle: saline + alcohol",117 % of control and 121 % of control
same,T/C,"dose: 20.0 micrograms/kg/injection, schedule: Q01DX005 (ip), vehicle: saline + alcohol",115 % of control and 117 % of control
same,T/C,"dose: 40.0 micrograms/kg/injection, schedule: Q01DX005 (ip), vehicle: saline + alcohol",123 % of control and 124 % of control
same,T/C,"dose: 40.0 micrograms/kg/injection, schedule: Q01DX009 (ip), vehicle: saline + alcohol",115 % of control
N#CC1=C(Nc2ccccc2Cl)SC(c2c(Cl)cccc2Cl)NC1=O (stereo not given),T/C,[10],90 % of control
same,T/C,[11],100 % of control
same,T/C,"dose: 240.0 mg/kg/injection, schedule: Q01DX005 (ip), vehicle: Klucel (hydroxypropylcellulose) (HPC)",93 % of control
COc1cccc2c1C(=O)c1c(O)c3c(c(O)c1C2=O)CC(O)(/C(C)=N/NC(=O)c1cc(C(F)(F)F)cc(C(F)(F)F)c1)CC3OC1CC(N)C(O)C(C)O1 (stereo not given),T/C,"dose: 0.78 mg/kg/injection, schedule: Q01DX009 (ip), vehicle: water",151 % of control
same,T/C,"dose: 1.56 mg/kg/injection, schedule: Q01DX009 (ip), vehicle: water",174 % of control
same,T/C,"dose: 3.13 mg/kg/injection, schedule: Q01DX009 (ip), vehicle: water",160 % of control and 185 % of control
same,T/C,"dose: 6.25 mg/kg/injection, schedule: Q01DX009 (ip), vehicle: water",93 % of control and 95 % of control
OC1(c2ccccc2)c2ccccc2-c2ccccc21,T/C,"dose: 100.0 mg/kg/injection, schedule: Q04DX003 (ip), vehicle: saline with Tween-80",109 % of control
same,T/C,"dose: 200.0 mg/kg/injection, schedule: Q04DX003 (ip), vehicle: saline with Tween-80",109 % of control
same,T/C,"dose: 400.0 mg/kg/injection, schedule: Q04DX003 (ip), vehicle: saline with Tween-80",104 % of control
COC(=O)NC(NC(=O)OC)C(F)(F)C(NC(=O)OC)NC(=O)OC,T/C,[10],96 % of control
same,T/C,[11],95 % of control
Cc1cc[n+]([O-])cc1,T/C,[1],105 % of control
same,T/C,[2],106 % of control
same,T/C,[3],97 % of control
CC1(C=O)CCCC2(C)[C@@H]1CCC13CC(CC[C@H]12)C(C(=O)O)C3 (stereo not given in full),T/C,"dose: 3.25 mg/kg/injection, schedule: Q01DX005 (ip), vehicle: Klucel (hydroxypropylcellulose) (HPC)",86 % of control
same,T/C,"dose: 6.5 mg/kg/injection, schedule: Q01DX005 (ip), vehicle: Klucel (hydroxypropylcellulose) (HPC)",90 % of control
same,T/C,"dose: 13.0 mg/kg/injection, schedule: Q01DX005 (ip), vehicle: Klucel (hydroxypropylcellulose) (HPC)",87 % of control
CC(=O)Oc1ccc(=O)[nH]c1,T/C,[4],100 % of control and 105 % of control
CCCCCCCCCCCC(=O)NC1CC(O[C@H]2C[C@](O)(C(C)=O)Cc3c(O)c4c(c(O)c32)C(=O)c2c(OC)cccc2C4=O)OC(C)C1O (stereo not given in full),T/C,"dose: 0.75 mg/kg/injection, schedule: Q01DX009 (ip), vehicle: other",119 % of control
same,T/C,"dose: 2.0 mg/kg/injection, schedule: Q04DX003 (ip), vehicle: other",91 % of control
same,T/C,"dose: 4.0 mg/kg/injection, schedule: Q04DX003 (ip), vehicle: other",107 % of control
same,T/C,"dose: 6.0 mg/kg/injection, schedule: Q01DX009 (ip), vehicle: other",150 % of control
same,T/C,"dose: 8.0 mg/kg/injection, schedule: Q04DX003 (ip), vehicle: other",98 % of control
same,T/C,"dose: 12.0 mg/kg/injection, schedule: Q01DX009 (ip), vehicle: other",158 % of control
same,T/C,"dose: 16.0 mg/kg/injection, schedule: Q04DX003 (ip), vehicle: other",102 % of control and 111 % of control
same,T/C,"dose: 32.0 mg/kg/injection, schedule: Q04DX003 (ip), vehicle: other",114 % of control and 120 % of control
same,T/C,"dose: 64.0 mg/kg/injection, schedule: Q04DX003 (ip), vehicle: other",120 % of control
same,T/C,"dose: 128.0 mg/kg/injection, schedule: Q04DX003 (ip), vehicle: other",123 % of control
same,T/C,"dose: 256.0 mg/kg/injection, schedule: Q04DX003 (ip), vehicle: other",100 % of control
CC(C)(C)c1ccc(C(=O)Nc2ccc(Cl)cc2Oc2ccccc2)cc1,T/C,"dose: 50.0 mg/kg/injection, schedule: Q01DX009 (ip), vehicle: Klucel (hydroxypropylcellulose) (HPC)",93 % of control
same,T/C,[5],97 % of control
same,T/C,[6],86 % of control
Cc1ccc(C2(C(=O)C=[N+]=[N-])OC2(C)C)cc1 (stereo not given),T/C,"dose: 25.0 mg/kg/injection, schedule: Q01DX005 (ip), vehicle: saline with Tween-80",99 % of control
same,T/C,[7],99 % of control
same,T/C,[8],115 % of control
same,T/C,[9],108 % of control
